# Assay results reported in US11426397B2, “Piperidinyl- and piperazinyl-substituted heteroaromatic carboxamides as modulators of GPR6” (TAKEDA PHARMACEUTICAL COMPANY LIMITED, priority 2017, dated 2022).
# Target: T1, GPR6 receptor expressed in CHO-K1 cells (Homo sapiens, UniProt P46095)
# T1 construct: expressed in transfected cells
# Assay: In vitro inhibition of cAMP (EC50), cell-based HTRF cAMP assay
# Settings: inhibition of constitutive cAMP activity of GPR6 in CHO-K1 cells
# Procedure, shortened: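 Cellular cAMP measured by Lance Ultra HTRF (Eu-cAMP tracer, ULight anti-cAMP), with EC50 fitted by four-parameter logistic. Test compounds sat on cells 45 min, 37 °C, in pH 7.4 Ringer's with 300 μM IBMX and 0.5% BSA; GPR6 in CHO-K1 induced beforehand by doxycycline, 2 μg/mL, 20 h.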
# T1 sequence (P46095 whole entry): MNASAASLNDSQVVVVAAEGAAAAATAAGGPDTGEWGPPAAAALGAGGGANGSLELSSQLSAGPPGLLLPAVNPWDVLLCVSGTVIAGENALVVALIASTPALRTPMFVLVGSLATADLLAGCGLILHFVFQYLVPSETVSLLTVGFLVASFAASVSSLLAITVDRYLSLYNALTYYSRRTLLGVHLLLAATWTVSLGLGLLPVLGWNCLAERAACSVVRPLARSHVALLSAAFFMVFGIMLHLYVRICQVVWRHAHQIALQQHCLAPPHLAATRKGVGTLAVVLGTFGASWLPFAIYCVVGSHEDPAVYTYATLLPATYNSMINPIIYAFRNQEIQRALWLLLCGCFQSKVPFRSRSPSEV
row,"pEC50, in vitro inhibition of cAMP",Structure (SMILES)
1,7.3,"COc1ccncc1C(=O)Nc1ccc(C)nc1N1CCC(Oc2ccc(F)cc2F)CC1 [Example 62, N-(2-(4-(2,4-difluorophenoxy)piperidin-1-yl)-6-methylpyridin-3-yl)-4-methoxynicotinamide]"
2,7.2,"Cn1cccc(C(=O)Nc2cc(C#N)ccc2N2CCC([C@@H](F)c3ccc(F)cc3F)CC2)c1=O [Example 85, (R)—N-(5-cyano-2-(4-((2,4-difluorophenyl)fluoromethyl)piperidin-1-yl)phenyl)-1-methyl-2-oxo-1,2-dihydropyridine-3-carboxamide]"
3,5.8,"COc1cccc(C)c1C(=O)Nc1cc(C#N)ccc1N1CCC(Oc2ccc(F)cc2F)CC1 [Example 227, N-(5-cyano-2-(4-(2,4-difluorophenoxy)piperidin-1-yl)phenyl)-2-methoxy-6-methylbenzamide]"
4,6.8,"Cn1cccc(C(=O)Nc2cc(C#N)ccc2N2CCC(C(F)(F)c3ccc(F)cc3F)CC2)c1=O [Example 86, N-(5-cyano-2-(4-((2,4-difluorophenyl)difluoromethyl)piperidin-1-yl)phenyl)-1-methyl-2-oxo-1,2-dihydropyridine-3-carboxamide]"
5,6.6,"COc1nn(C)cc1C(=O)Nc1cc(C#N)cnc1N1CCN(Cc2ccc(OC(F)F)cc2)CC1 [Example 162, N-(5-cyano-2-(4-(4-(difluoromethoxy)benzyl)piperazin-1-yl)pyridin-3-yl)-3-methoxy-1-methyl-1H-pyrazole-4-carboxamide]"
6,5.8,"COc1c(F)ccc(F)c1C(=O)Nc1cc(C#N)ccc1N1CCC(Oc2ccc(F)cc2F)CC1 [Example 189, N-(5-cyano-2-(4-(2,4-difluorophenoxy)piperidin-1-yl)phenyl)-3,6-difluoro-2-methoxybenzamide]"
7,5.9,"Cn1c(-c2ccccc2)ncc(C(=O)Nc2cc(C#N)ccc2N2CCC(Oc3ccc(F)cc3F)CC2)c1=O [Example 183, N-(5-cyano-2-(4-(2,4-difluorophenoxy)piperidin-1-yl)phenyl)-1-methyl-6-oxo-2-phenyl-1,6-dihydropyrimidine-5-carboxamide]"
8,6.0,"COc1cc(F)cc(CN2CCN(c3ncc(C#N)cc3NC(=O)c3cn(C)nc3OC)CC2)c1 [Example 159, N-(5-cyano-2-(4-(3-fluoro-5-methoxybenzyl)piperazin-1-yl)pyridin-3-yl)-3-methoxy-1-methyl-1H-pyrazole-4-carboxamide]"
9,6.9,"Cc1ccc(C(=O)Nc2cc(C#N)ccc2N2CCC(Oc3ccc(F)cc3F)CC2)nc1 [Example 124, N-(5-cyano-2-(4-(2,4-difluorophenoxy)piperidin-1-yl)phenyl)-5-methylpicolinamide]"
10,6.4,"COc1cc(N(C)C)ccc1C(=O)Nc1cc(C#N)ccc1N1CCC(Oc2ccc(F)cc2F)CC1 [Example 188, N-(5-cyano-2-(4-(2,4-difluorophenoxy)piperidin-1-yl)phenyl)-4-(dimethylamino)-2-methoxybenzamide]"
11,6.9,"COc1ncc(C)cc1C(=O)Nc1cc(C(=O)N(C)C)cnc1N1CCC(Oc2ccc(F)cc2F)CC1 [Example 147, 6-(4-(2,4-difluorophenoxy)piperidin-1-yl)-5-(2-methoxy-5-methylnicotinamido)-N,N-dimethylnicotinamide]"
12,6.5,"N#Cc1ccc(N2CCC(Oc3ccc(F)cc3F)CC2)c(NC(=O)c2ccc(F)cn2)c1 [Example 106, N-(5-cyano-2-(4-(2,4-difluorophenoxy)piperidin-1-yl)phenyl)-5-fluoropicolinamide]"
13,5.6,"COc1nccc(Cl)c1C(=O)Nc1cc(C#N)ccc1N1CCC(Oc2ccc(F)cc2F)CC1 [Example 223, 4-chloro-N-(5-cyano-2-(4-(2,4-difluorophenoxy)piperidin-1-yl)phenyl)-2-methoxynicotinamide]"
14,6.7,"COc1ccc(Cl)cc1C(=O)Nc1cc(C#N)ccc1N1CCC(Oc2ccc(F)cc2F)CC1 [Example 211, 5-chloro-N-(5-cyano-2-(4-(2,4-difluorophenoxy)piperidin-1-yl)phenyl)-2-methoxybenzamide]"
15,5.5,"COc1ccc(N2CCOCC2)cc1C(=O)Nc1cc(C#N)ccc1N1CCC(Oc2ccc(F)cc2F)CC1 [Example 215, N-(5-cyano-2-(4-(2,4-difluorophenoxy)piperidin-1-yl)phenyl)-2-methoxy-5-morpholinobenzamide]"
16,6.3,"COc1cc(F)ccc1CN1CCN(c2ncc(C#N)cc2NC(=O)c2cn(C)nc2OC)CC1 [Example 155, N-(5-cyano-2-(4-(4-fluoro-2-methoxybenzyl)piperazin-1-yl)pyridin-3-yl)-3-methoxy-1-methyl-1H-pyrazole-4-carboxamide]"
17,7.1,"COc1ncncc1C(=O)Nc1cc(C#N)ccc1N1CCC(Oc2ccc(F)cc2F)CC1 [Example 37, N-(5-cyano-2-(4-(2,4-difluorophenoxy)piperidin-1-yl)phenyl)-4-methoxypyrimidine-5-carboxamide]"
18,7.3,"COCc1cnc(N2CCC(Oc3ccc(F)cc3F)CC2)c(NC(=O)c2cccnc2OC)c1 [Example 65, N-(2-(4-(2,4-difluorophenoxy)piperidin-1-yl)-5-(methoxymethyl)pyridin-3-yl)-2-methoxynicotinamide]"

row,"pEC50, in vitro inhibition of cAMP",Structure (SMILES)
1,6.7,"Cc1cccn2c(=O)c(C(=O)Nc3cc(C#N)ccc3N3CCC(Oc4ccc(F)cc4F)CC3)cnc12 [Example 197, N-(5-cyano-2-(4-(2,4-difluorophenoxy)piperidin-1-yl)phenyl)-9-methyl-4-oxo-4H-pyrido[1,2-a]pyrimidine-3-carboxamide]"
2,6.2,"COc1ncccc1C(=O)Nc1cc(C#N)ccc1N1CCN(S(=O)(=O)c2ccc(F)cc2)CC1 [Example 287, N-(5-cyano-2-(4-((4-fluorophenyl)sulfonyl)piperazin-1-yl)phenyl)-2-methoxynicotinamide]"
3,6.2,"Cc1cc(=O)c(C(=O)Nc2cc(C#N)ccc2N2CCC(Oc3ccc(F)cc3F)CC2)cn1C [Example 24, N-(5-cyano-2-(4-(2,4-difluorophenoxy)piperidin-1-yl)phenyl)-1,6-dimethyl-4-oxo-1,4-dihydropyridine-3-carboxamide]"
4,6.9,Cn1cccc(C(=O)Nc2cc(C#N)ccc2N2CCC(Oc3ccccc3F)CC2)c1=O [Example 8]
5,6.7,"CNC(=O)c1cc(N2CCC(Oc3ccc(F)cc3F)CC2)c(NC(=O)c2cccnc2OC)cn1 [Example 19, 4-(4-(2,4-difluorophenoxy)piperidin-1-yl)-5-(2-methoxynicotinamido)-N-methylpicolinamide]"
6,6.3,"COc1cn(-c2ccccc2)nc1C(=O)Nc1cc(C#N)ccc1N1CCC(Oc2ccc(F)cc2F)CC1 [Example 219, N-(5-cyano-2-(4-(2,4-difluorophenoxy)piperidin-1-yl)phenyl)-4-methoxy-1-phenyl-1H-pyrazole-3-carboxamide]"
7,6.5,"COc1ncccc1C(=O)Nc1cc(C#N)ccc1N1CCN(Cc2ccsc2)CC1 [Example 73, N-(5-cyano-2-(4-(thiophen-3-ylmethyl)piperazin-1-yl)phenyl)-2-methoxynicotinamide]"
8,7.3,"COc1ncccc1C(=O)Nc1cc(C#N)cnc1N1CCN(Cc2ccc(F)cc2)CC1 [Example 75, N-(5-cyano-2-(4-(4-fluorobenzyl)piperazin-1-yl)pyridin-3-yl)-2-methoxynicotinamide]"
9,6.8,COc1nc(C(F)(F)F)ccc1C(=O)Nc1cc(C#N)ccc1N1CCC(Oc2ccc(F)cc2F)CC1 [Example 213]
10,<5.7,Cc1ccc(NC(=O)c2cnn(C)c2O)c(N2CCN(Cc3ccc(F)cc3)CC2)n1 [Example 104]
11,6.9,Cn1cccc(C(=O)Nc2cc(C#N)ccc2N2CCC(C(=O)c3cc(Cl)ccc3F)CC2)c1=O [Example 83]
12,6.7,"CCOc1c(C(=O)Nc2cc(C#N)cnc2N2CCC(Oc3ccc(F)cc3F)CC2)cnn1C [Example 121, N-(5-cyano-2-(4-(2,4-difluorophenoxy)piperidin-1-yl)pyridin-3-yl)-5-ethoxy-1-methyl-1H-pyrazole-4-carboxamide]"
13,7.3,"Cc1cccnc1C(=O)Nc1cc(C#N)cnc1N1CCC(Oc2ccc(F)cc2F)CC1 [Example 59, N-(5-cyano-2-(4-(2,4-difluorophenoxy)piperidin-1-yl)pyridin-3-yl)-3-methylpicolinamide]"
14,6.4,CC(C)c1ccc(C(=O)Nc2cc(C#N)ccc2N2CCC(Oc3ccc(F)cc3F)CC2)c(=O)n1C [Example 186]
15,7.1,"Cn1cccc(C(=O)Nc2cc(C#N)ccc2N2CCC(Oc3cc(F)ccc3F)CC2)c1=O [Example 15, N-(5-cyano-2-(4-(2,5-difluorophenoxy)piperidin-1-yl)phenyl)-1-methyl-2-oxo-1,2-dihydropyridine-3-carboxamide]"
16,6.8,"Cc1cc(C(=O)Nc2cc(C#N)ccc2N2CCC(Oc3ccc(F)cc3F)CC2)nc(C)n1 [Example 135, N-(5-cyano-2-(4-(2,4-difluorophenoxy)piperidin-1-yl)phenyl)-2,6-dimethylpyrimidine-4-carboxamide]"
17,6.4,"COc1cccc(S(=O)(=O)C2CCN(c3ccc(C#N)cc3NC(=O)c3cn(C)nc3OC)CC2)c1 [Example 98, N-(5-cyano-2-(4-((3-methoxyphenyl)sulfonyl)piperidin-1-yl)phenyl)-3-methoxy-1-methyl-1H-pyrazole-4-carboxamide]"
18,6.3,COc1ncccc1C(=O)Nc1cc(C#N)ccc1N1CCN(Cc2ccc(F)cn2)CC1 [Example 244]
